Values quoted from earlier work in article PMC7395068, “The evolution of strategies to minimise the risk of human drug-induced liver injury (DILI) in drug discovery and development” (Archives of Toxicology, 2020).
Like-named read-outs stand apart in the source and are kept apart here.

Key:
[1] = cited from earlier work
HepG2 cells [2] = conditions: cited from earlier work
[3] = tested on: THLE or HepG2 cells, isolated mitochondria, BSEP; conditions: cited from earlier work
[4] = cited from earlier work; remark: listed apart in the source
human hepatocytes = conditions: cited from earlier work
HepG2 cells [5] = conditions: cited from earlier work; for Structural based (HCI), In vitro Assay: HepG2 HCI
[6] = tested on: isolated mouse liver mitochondria; conditions: cited from earlier work
[7] = In vitro Assay, ref Persson 2013
[8] = In vitro Assay, ref O'Brien 2006
[9] = assignment in O'Brien 2006, ref O'Brien 2006

**Q.** For `O=C(O)CCCCCCNC1c2ccccc2CCc2ccccc21` [amineptine], which “DILI +VE (5-8), DILI -VE (-4)” value ([1]; in vivo) is on record?
**A.** +VE

**Q.** And the DILI severity category ([1]; in vivo)?
**A.** vMost-DILI-Concern

**Q.** What about the Cluser analysis (HepG2 cells [2]) of the same compound?
**A.** -VE

**Q.** What about the “Structural based (HCI)” value (HepG2 cells [2]) of the same compound?
**A.** -VE

**Q.** And the “Partition Hybrid HRM Score” value [3]?
**A.** +VE

**Q.** And the “Ro2 Hybrid HRM Score” value [3]?
**A.** -VE

**Q.** What about the “In vivo DILI” value ([4]; in vivo) of the same compound?
**A.** +VE

**Q.** For `Nc1ccc(C(=O)O)c(O)c1` [aminosalicylic acid], which Cluser analysis (HepG2 cells [2]; [7]) is on record?
**A.** -VE

**Q.** What about the “Structural based (HCI)” value (HepG2 cells [2]; [7]) of the same compound?
**A.** -VE

**Q.** What about the “Structural based (HCI)” value (human hepatocytes) of the same compound?
**A.** +VE

**Q.** What about the “In vivo DILI” value ([4]; in vivo) of the same compound?
**A.** +VE

**Q.** With `Nc1ccc(C(=O)O)c(O)c1` [aminosalycilate] as the compound, how does the “Structural based (HCI)” value (HepG2 cells [5]) read?
**A.** +VE (key: +VE: lowest HCI endpoint IC50 (or in the absence of dose–response < 100 µM) < 30 × total human plasma exposure levels (Cmax.tot))

**Q.** With `O=C(O)CCCC[C@@H]1SC[C@@H]2NC(=O)N[C@@H]21` [biotin] as the compound, how does the Cluser analysis (HepG2 cells [2]) read?
**A.** -VE

**Q.** And the “Structural based (HCI)” value (HepG2 cells [2])?
**A.** -VE

**Q.** And the “Structural based (HCI)” value (human hepatocytes)?
**A.** -VE

**Q.** And the “In vivo DILI” value ([4]; in vivo)?
**A.** -VE

**Q.** And the “in vitro data EC20<=2uM” value [6]?
**A.** -VE

**Q.** With `CC(C)(O/N=C(\C(=O)N[C@@H]1C(=O)N2C(C(=O)[O-])=C(C[n+]3ccccc3)CS[C@H]12)c1csc(N)n1)C(=O)O` [ceftazidime] as the compound, how does the “DILI +VE (5-8), DILI -VE (-4)” value ([1]; ref Chen 2016) read?
**A.** +VE

**Q.** What about the DILI severity category ([1]; ref Chen 2016) of the same compound?
**A.** vLess-DILI-Concern

**Q.** What about the “Structural based (HCI)” value (HepG2 cells [5]; [8]) of the same compound?
**A.** +VE (lowest HCI endpoint IC50 (or in the absence of dose–response < 100 µM) < 30 × total human plasma exposure levels (Cmax.tot))

**Q.** And the “In vivo DILI” value ([4]; […])?
**A.** +VE

**Q.** And the “In vivo DILI” value ([4]; ref O'Brien 2006)?
**A.** +VE

**Q.** What does the source list for `COCc1c(C(C)C)nc(C(C)C)c(/C=C/[C@@H](O)C[C@@H](O)CC(=O)O)c1-c1ccc(F)cc1` [cerivastatin]?
**A.** Structural based (HCI) (HepG2 cells [5]): +VE (key: +VE: lowest HCI endpoint IC50 (or in the absence of dose–response < 100 µM) < 30 × total human plasma exposure levels (Cmax.tot)); In vivo DILI ([4]; ref O'Brien 2006): +VE

**Q.** What does the source list for `Oc1c(I)cc(Cl)c2cccnc12` [clioquinol]?
**A.** Structural based (HCI) (HepG2 cells [5]; [8]): +VE (lowest HCI endpoint IC50 (or in the absence of dose–response < 100 µM) < 30 × total human plasma exposure levels (Cmax.tot)); In vivo DILI ([4]; ref O'Brien 2006): -VE

**Q.** For `CCOC(=O)[C@H](CCc1ccccc1)N[C@@H](C)C(=O)N1CCC[C@H]1C(=O)O` [enalapril], which “DILI +VE (5-8), DILI -VE (-4)” value ([1]; ref Chen 2016) is on record?
**A.** +VE

**Q.** What about the DILI severity category ([1]; ref Chen 2016) of the same compound?
**A.** vLess-DILI-Concern

**Q.** What about the “Structural based (HCI)” value (HepG2 cells [5]; [8]) of the same compound?
**A.** +VE (lowest HCI endpoint IC50 (or in the absence of dose–response < 100 µM) < 30 × total human plasma exposure levels (Cmax.tot))

**Q.** What about the “In vivo DILI” value ([4]; ref O'Brien 2006) of the same compound?
**A.** +VE

**Q.** Which “Structural based (HCI)” value (HepG2 cells [5]; [8]) does the source give for `CC[C@]1(O)CC[C@H]2[C@@H]3CCC4=CCCC[C@@H]4[C@H]3CC[C@@]21C` [ethylestrenol] here?
**A.** +VE (lowest HCI endpoint IC50 (or in the absence of dose–response < 100 µM) < 30 × total human plasma exposure levels (Cmax.tot))

**Q.** What about the “In vivo DILI” value ([4]; ref O'Brien 2006) of the same compound?
**A.** +VE

**Q.** For `CCNC(C)Cc1cccc(C(F)(F)F)c1` (centres unmarked) [fenfluramine], which “Structural based (HCI)” value (HepG2 cells [5]; [8]) is on record?
**A.** -VE

**Q.** And the “In vivo DILI” value ([4]; ref O'Brien 2006)?
**A.** -VE

**Q.** Which “Structural based (HCI)” value (HepG2 cells [5]; [8]) does the source give for `O=C(O)c1ccccc1Nc1cccc(C(F)(F)F)c1` [flufenamate] here?
**A.** +VE (lowest HCI endpoint IC50 (or in the absence of dose–response < 100 µM) < 30 × total human plasma exposure levels (Cmax.tot))

**Q.** And the “In vivo DILI” value ([4]; ref O'Brien 2006)?
**A.** -VE

**Q.** With `Nc1nc(=O)c2c([nH]1)NC[C@@H](CNc1ccc(C(=O)N[C@@H](CCC(=O)O)C(=O)O)cc1)N2C=O` [folinic acid] as the compound, how does the Cluser analysis (HepG2 cells [2]; [7]) read?
**A.** -VE

**Q.** What about the “Structural based (HCI)” value (HepG2 cells [2]; [7]) of the same compound?
**A.** -VE

**Q.** And the “In vivo DILI” value ([4]; ref Persson 2013)?
**A.** -VE

**Q.** Which results are given for `O=C(O)P(=O)(O)O` [foscarnet]?
**A.** DILI +VE (5-8), DILI -VE (-4) ([1]; ref Chen 2016): -VE; DILI severity category ([1]; ref Chen 2016): Ambiguous DILI-concern; Structural based (HCI) (HepG2 cells [5]; [8]): +VE (lowest HCI endpoint IC50 (or in the absence of dose–response < 100 µM) < 30 × total human plasma exposure levels (Cmax.tot)); In vivo DILI ([4]; ref O'Brien 2006): -VE

**Q.** Which results are given for `FC(F)(F)C(Cl)Br` (centres unmarked) [halothane]?
**A.** Structural based (HCI), In vitro Assay (HepG2 cells [5]; ref O'Brien 2006): +VE; In vivo DILI [4, 9]: -VE

**Q.** For `NNc1nncc2ccccc12` [hydralazine], which “DILI +VE (5-8), DILI -VE (-4)” value ([1]; ref Chen 2016) is on record?
**A.** +VE

**Q.** And the DILI severity category ([1]; ref Chen 2016)?
**A.** vLess-DILI-Concern

**Q.** What about the “Structural based (HCI)” value (HepG2 cells [5]; [8]) of the same compound?
**A.** +VE (lowest HCI endpoint IC50 (or in the absence of dose–response < 100 µM) < 30 × total human plasma exposure levels (Cmax.tot))

**Q.** What about the “In vivo DILI” value ([4]; […]) of the same compound?
**A.** +VE

**Q.** And the “In vivo DILI” value ([4]; ref O'Brien 2006)?
**A.** +VE

**Q.** What does the source list for `CC(C(=O)O)c1ccc(N2Cc3ccccc3C2=O)cc1` (centres unmarked) [indoprofen]?
**A.** Structural based (HCI), In vitro Assay (HepG2 cells [5]; ref O'Brien 2006): +VE; In vivo DILI [4, 9]: -VE

**Q.** For `NC[C@H]1O[C@H](O[C@H]2[C@H](O)[C@@H](O[C@H]3O[C@H](CO)[C@@H](O)[C@H](N)[C@H]3O)[C@H](N)C[C@@H]2N)[C@H](O)[C@@H](O)[C@@H]1O` [kanamycin], which “Structural based (HCI)” value (HepG2 cells [5]) is on record?
**A.** +VE

**Q.** What about the “Partition Hybrid HRM Score” value [3] of the same compound?
**A.** -VE

**Q.** What about the “Ro2 Hybrid HRM Score” value [3] of the same compound?
**A.** -VE

**Q.** Which “DILI +VE (5-8), DILI -VE (-4)” value ([1]; ref Chen 2016) does the source give for `CC12CC3CC(C)(C1)CC(N)(C3)C2` [memantine] here?
**A.** +VE

**Q.** And the DILI severity category ([1]; ref Chen 2016)?
**A.** vLess-DILI-Concern

**Q.** And the “Structural based (HCI)” value (HepG2 cells [5]; [8])?
**A.** -VE

**Q.** What about the “Structural based (HCI)” value (human hepatocytes; In vitro Assay, ref Xu 2008) of the same compound?
**A.** -VE

**Q.** And the “In vivo DILI” value ([4]; ref O'Brien 2006)?
**A.** -VE

**Q.** And the “In vivo DILI” value ([4]; ref Xu 2008)?
**A.** -VE

**Q.** With `C=C1c2cccc(O)c2C(=O)C2=C(O)[C@]3(O)C(=O)C(C(N)=O)=C(O)[C@@H](N(C)C)[C@@H]3[C@@H](O)[C@H]12` [methacycline] as the compound, how does the “Structural based (HCI)” value (HepG2 cells [5]; [8]) read?
**A.** +VE (lowest HCI endpoint IC50 (or in the absence of dose–response < 100 µM) < 30 × total human plasma exposure levels (Cmax.tot))

**Q.** What about the “Structural based (HCI)” value (human hepatocytes; In vitro Assay, ref Xu 2008) of the same compound?
**A.** +VE

**Q.** And the “In vivo DILI” value ([4]; ref O'Brien 2006)?
**A.** +VE

**Q.** What about the “In vivo DILI” value ([4]; ref Xu 2008) of the same compound?
**A.** +VE
